Data: patent US10111847B2, “Compounds and methods for modulating vascular injury” (The Regents of the University of California, priority 2012, dated 2018)

Legend:
[1] = tested on: NOX4; assay: TNFα induced NADPH-oxidase 4 expression, western blot; assay type: cell-based, human; conditions: 30 min pretreatment, TNFα 10 ng/ml 4 hr; sv-VSMCs
Description: Mar-1. VSMCs and ECs were lysed in buffer (20 mM Tris-Hcl, 137 mM NaCl, 10% Glycerol, 1% NP-40) with protease and phosphatase inhibitors (Halt inhibitor capsules, Pierce, Inc) by sonication on ice. The lysates were instantly snap frozen in liquid nitrogen and thawed back later for western blotting. After centrifugation (15,000 g for 20 minutes), the whole cell extract (supernatant) was collected and was heated at 100° C. in Laemlli buffer for 6 minutes. Lysates were run on Mini-Protean TGX gels
(Biorad) and transferred on PVDF membranes which were probed with appropriate primary and secondary antibodies and visualized for quantitation using q-dot nanocrystals (Life Technologies, Inc).
NADPH oxidases (NOX) are the dominant source of superoxide generation in blood vessels and have been strongly implicated in vascular injury. NOX4 is a dominant isoform bound in VSMC and blood vessels. Regulation of NOX4 expression and activity therefore is of interest. Human sv-VSMCs were pretreated with 7S-Maresin-1 or vehicle for 30 min, followed by TNFα at 10 ng/ml for 4 hr. Whole cell lysates were blotted for NOX4 (Abcam Inc.) and beta-actin (Sigma).
FIG. 14. NOX4 and beta-actin western blotting image is representative of three independent experiments. Bar graph represents net quantitative densitometry analysis. N=3. […]

[2] = tested on: carotid artery; assay: Mouse carotid artery ligation model, neointima formation; assay type: in vivo, FVB Mice; conditions: intraperitoneal 100 ng/dose on days 0, 1, 3, 5 and 7; sacrificed at 14 days
Description: To examine the potential therapeutic effects of systemic administration of pro-resolving mediators in acute vascular injury, a standardized mouse model of carotid ligation was employed. FVB Mice (N=23) were treated with intraperitoneal administration of RvD2 (100 ng/dose), 7R Mar-1 (100 ng/dose) or vehicle on days 0 (4 hrs prior to carotid injury), 1, 3, 5 and 7. Total dose received was 500 ng/mouse. Unilateral carotid ligation was performed as a standardized model of vascular injury, induced by low shear. Animals were then sacrificed at 14 days and perfusion-fixed vessels explanted for analysis. Following elastin staining, neointima (NI) and medial (M) compartments were measured by a blinded observer, and ratios (area and average wall thickness) calculated. Analysis was performed at mid CCA level (2.5 mm from ligature).
FIG. 22. (A)-(C), depict a cross-section of a carotid artery at mid CCA level (2.5 mm from ligature) from carotid ligation mouse model administered vehicle (A), RvD2 (B), or 7R-Mar-1 (C). (D)-(E) depict NUM ratio of the cross-section of the carotid artery at mid CCA level from carotid ligation mouse model administered vehicle, RvD2, or 7R-Mar-1. […]

[3] = tested on: ICAM-1, IL-1β, and IL-1α; assay: Gene expression in VSMC in presence or absence of pertussis toxin (PTX); assay type: cell-based, human; conditions: RvD2 10 nM; PTX 100 ng/ml; TNF-α
Description: Cells are plated onto 6-well plates at 100% confluency in DMEM plus 10% FBS and allowed to attached overnight. Cells are then made quiescent by placing in serum-free media for 48-72 hours prior to start of experiments. Cells are treated with or without RvD1 or RvD2 at the indicated concentrations for one hour followed by co-incubation with cytokine (TNF-α 10 ng/ml) for up to 18 hours. In a separate set of experiments to examine the role of G-protein receptors, VSMCs are exposed to TNF-α and RvD2 (10 nM) as described above, in the presence or absence of pertussis toxin (PTX 100 ng/ml). Total RNA from rabbit sample or cells is isolated with PureLink RNA Mini kit (Ambion Life Technologies, Carlsbad, Calif.) with RNase-free DNase treatment according to manufacturer's protocol. One microgram of total RNA (from either VSMC or rabbit tissue) is used to generate cDNA using High Capacity cDNA Reverse Transcription Kit (Applied Biosystems, Foster City, Calif.) for subsequent RT-PCR reactions. Sybrgreen Amplified DNA is detected by incorporation SYBR Green (Qiagen, Germantown, Md.). […]
FIG. 9: Effects of RvD2 on gene expression in VSMC are sensitive to pertussis toxin (PTX). […] RNA was harvested and analyzed for the expression of ICAM-1, IL-1β, and IL-1α by qPCR (n=3, results are mean±SEM, **P<0.01, *P<0.05, one-way ANOVA followed by Bonferroni's post hoc test).

Compound | TNFα induced NADPH-oxidase 4 expression [1] | neointima formation following carotid artery ligation [2] | effect of pertussis toxin on inhibition of ICAM-1, IL-1β, and IL-1α gene expression [3]
CC/C=C\C/C=C\C[C@H](O)\C=C/C=C/C=C/[C@@H](O)C/C=C\CCC(=O)O [7S-Maresin-1, 7S,14R-dihydroxydocosa-4Z,8E,10Z,12Z,16Z,19Z-hexaenoic acid] | Attenuates |  | 
CC/C=C\C[C@H](O)[C@H](O)/C=C/C=C/C=C\C=C\[C@@H](O)C/C=C\CCC(=O)O [RvD2, resolvin D2] |  | Reduces | abrogation of the inhibitory effects
